Source: patent US10532995B2, “Substituted pyrazole compounds as serine protease inhibitors” (VERSEON CORPORATION, priority 2015, dated 2020)
Structures can show the parent of a compound that is named as a salt.

These compounds were tested against T1, Human thrombin (Homo sapiens, UniProt P00734) (assay: Thrombin protease activity inhibition, chromogenic substrate S-2238). Conditions: 3 nM thrombin, 125 μM S-2238, 10 min pre-incubation, RT.
T1 construct: purchased Haematologic Technologies Inc
Assay type: biochemical
Procedure, shortened: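 Thrombin at 3 nM final in 0.05 M Tris pH 7.4, 0.015 M NaCl, 0.01% PEG-8000, at room temperature; compounds as ten-point three-fold dilutions.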
Work on COc1ccccc1C(=O)n1nc(C2(C)CCCN2)cc1NCc1ccc(Cl)s1 (stereo not shown) [Entry 152, N-[(5-chlorothiophen-2-yl)methyl]-1-(2-methoxybenzoyl)-3-(2-methylpyrrolidin-2-yl)-1H-pyrazol-5-amine; formic acid] yielded an IC50 of 100 to 1000 nM. For O=C(O)CN1CCC(c2cc(NCc3ccc(Cl)s3)[nH]n2)CC1 [Entry 112, 2-[4-(5-[(5-chlorothiophen-2-yl)methyl]amino-1H-pyrazol-3-yl)piperidin-1-yl]acetic acid], the IC50 was greater than 100000 nM. FC(F)(F)C(c1ccccn1)N1CCC(c2cc(NCc3ccc(Cl)s3)[nH]n2)CC1 (stereo not shown) [Entry 221, N-[(5-chlorothiophen-2-yl)methyl]-3-1-[2,2,2-trifluoro-1-(pyridin-2-yl)ethyl]piperidin-4-yl-1H-pyrazol-5-amine] was tested, and the IC50 was greater than 100000 nM. In the case of Clc1ccc(CNc2cc(C3CCOCC3)n[nH]2)s1 [Entry 182, N-[(5-chlorothiophen-2-yl)methyl]-3-(oxan-4-yl)-1H-pyrazol-5-amine], the IC50 is reported as greater than 100000 nM. In the case of O=S(=O)(N1CCOCC1)N1CCC(c2cc(N(Cc3ccc(Cl)s3)S(=O)(=O)N3CCOCC3)[nH]n2)CC1 [Entry 238, N-[(5-chlorothiophen-2-yl)methyl]-N-3-[1-(morpholine-4-sulfonyl)piperidin-4-yl]-1H-pyrazol-5-ylmorpholine-4-sulfonamide], the IC50 is reported as 1000 to 10000 nM. Compound CC(C)(C)OC(=O)N1CCC(c2cc(NCc3ccc(Cl)s3)n(C(=O)C(C)(C)C)n2)CC1 [Entry 292, tert-butyl 4-(5-[(5-chlorothiophen-2-yl)methyl]amino-1-(2,2-dimethylpropanoyl)-1H-pyrazol-3-yl)piperidine-1-carboxylate] has an IC50 of less than 100 nM. Compound COc1ccccc1C(=O)n1nc(C2CNC2)cc1NCc1ccc(Cl)s1 [Entry 127, 3-(azetidin-3-yl)-N-[(5-chlorothiophen-2-yl)methyl]-1-(2-methoxybenzoyl)-1H-pyrazol-5-amine hydrochloride] has an IC50 of 10000 to 100000 nM. O=C(c1ccsc1)n1nc(C2CCCNC2)cc1NCc1ccc(Cl)s1 (stereo not shown) [Entry 185, N-[(5-chlorothiophen-2-yl)methyl]-3-(piperidin-3-yl)-1-(thiophene-3-carbonyl)-1H-pyrazol-5-amine] was tested, and the IC50 was 100 to 1000 nM. With C=CCOC(=O)N1CCC(c2cc(NCc3ccc(Cl)s3)n(C(=O)C(C)(C)C)n2)CC1 [Entry 262, prop-2-en-1-yl 4-(5-[(5-chlorothiophen-2-yl)methyl]amino-1-(2,2-dimethylpropanoyl)-1H-pyrazol-3-yl)piperidine-1-carboxylate] the IC50 was less than 100 nM. CC(C)(C)C(=O)n1nc(C2CC3CCC(C2)N3S(C)(=O)=O)cc1NCc1ccc(Cl)s1 (stereo not shown) [Entry 81, 1-(5-[(5-chlorothiophen-2-yl)methyl]amino-3-8-methanesulfonyl-8-azabicyclo[3.2.1]octan-3-yl-1H-pyrazol-1-yl)-2,2-dimethylpropan-1-one] was tested, and the IC50 was less than 100 nM. With O=C(CN1CCC(c2cc(NCc3ccc(Cl)s3)[nH]n2)CC1)N1CCOCC1 [Entry 111, 2-[4-(5-[(5-chlorothiophen-2-yl)methyl]amino-1H-pyrazol-3-yl)piperidin-1-yl]-1-(morpholin-4-yl)ethan-1-one] the IC50 was greater than 100000 nM. C=CCOC(=O)N1CCCC(c2cc(NCc3ccc(Cl)s3)n(C(=O)C(C)(C)C)n2)CC1 (stereo not shown) [Entry 261, prop-2-en-1-yl 4-(5-[(5-chlorothiophen-2-yl)methyl]amino-1-(2,2-dimethylpropanoyl)-1H-pyrazol-3-yl)azepane-1-carboxylate] showed an IC50 of less than 100 nM. With CC(C)(C)OC(=O)N1CCCC(c2cc(NCc3ccc(Cl)s3)n(C(=O)c3ccsc3)n2)C1 (stereo not shown) [Entry 289, tert-butyl 3-(5-[(5-chlorothiophen-2-yl)methyl]amino-1-(thiophene-3-carbonyl)-1H-pyrazol-3-yl)piperidine-1-carboxylate] the IC50 was less than 100 nM. C=CCOC(=O)N1CCC(c2nn(C(=O)C(C)(C)C)c(NCc3ccc(Cl)s3)c2C#N)CC1 [Entry 267, prop-2-en-1-yl 4-(5-[(5-chlorothiophen-2-yl)methyl]amino-4-cyano-1-(2,2-dimethylpropanoyl)-1H-pyrazol-3-yl)piperidine-1-carboxylate] showed an IC50 of less than 100 nM. CC(C)(C)OC(=O)N1CCCC1(C)c1cc(NCc2ccc(Cl)s2)n(C(=O)C2(C)CCOCC2)n1 (stereo not shown) [Entry 275, tert-butyl 2-(5-[(5-chlorothiophen-2-yl)methyl]amino-1-(4-methyloxane-4-carbonyl)-1H-pyrazol-3-yl)-2-methylpyrrolidine-1-carboxylate] gave an IC50 of 1000 to 10000 nM. For C=CCOC(=O)N1CCN(C(=O)N2CCOCC2)CC1c1cc(NCc2ccc(Cl)s2)[nH]n1 (stereo not shown) [Entry 249, prop-2-en-1-yl 2-(5-[(5-chlorothiophen-2-yl)methyl]amino-1H-pyrazol-3-yl)-4-(morpholine-4-carbonyl)piperazine-1-carboxylate], the IC50 was greater than 100000 nM. For C=CCOC(=O)N1CCCC1c1cc(NCc2ccc(Cl)s2)n(C(=O)c2cscn2)n1 (stereo not shown) [Entry 243, prop-2-en-1-yl 2-(5-[(5-chlorothiophen-2-yl)methyl]amino-1-(1,3-thiazole-4-carbonyl)-1H-pyrazol-3-yl)pyrrolidine-1-carboxylate], the IC50 was less than 100 nM. Clc1ccc(CNc2cc(C3CCCN3)n[nH]2)s1 (stereo not shown) [Entry 189, N-[(5-chlorothiophen-2-yl)methyl]-3-(pyrrolidin-2-yl)-1H-pyrazol-5-amine] showed an IC50 greater than 100000 nM. Compound CC(C)(C)OC(=O)N1CCC(C)(c2cc(NCc3ccc(Cl)s3)n(C(=O)c3ccsc3)n2)CC1 [Entry 300, tert-butyl 4-(5-[(5-chlorothiophen-2-yl)methyl]amino-1-(thiophene-3-carbonyl)-1H-pyrazol-3-yl)-4-methylpiperidine-1-carboxylate] has an IC50 of less than 100 nM. With C=CCOC(=O)N1CCCC1c1cc(NCc2ccc(Cl)s2)n(C(=O)C(C)(C)C)n1 (stereo not shown) [Entry 247, prop-2-en-1-yl 2-(5-[(5-chlorothiophen-2-yl)methyl]amino-1-(2,2-dimethylpropanoyl)-1H-pyrazol-3-yl)pyrrolidine-1-carboxylate] the IC50 was less than 100 nM. Work on CC(C)(C)OC(=O)N1CCC(c2cc(NCc3ccc(Cl)s3)[nH]n2)CC1 [Entry 302, tert-butyl 4-(5-[(5-chlorothiophen-2-yl)methyl]amino-1H-pyrazol-3-yl)piperidine-1-carboxylate] yielded an IC50 greater than 100000 nM. In the case of Clc1ccc(CNc2cc(C3CCN(CCc4ccccn4)CC3)n[nH]2)s1 [Entry 224, N-[(5-chlorothiophen-2-yl)methyl]-3-1-[2-(pyridin-2-yl)ethyl]piperidin-4-yl-1H-pyrazol-5-amine], the IC50 is reported as greater than 100000 nM. With Cc1c(C2CCN(C(=O)c3cscn3)CC2)n[nH]c1NCc1ccc(Cl)s1 [Entry 236, N-[(5-chlorothiophen-2-yl)methyl]-4-methyl-3-[1-(1,3-thiazole-4-carbonyl)piperidin-4-yl]-1H-pyrazol-5-amine] the IC50 was greater than 100000 nM. C=CCOC(=O)N1CCN(C(=O)N2CCOCC2)CC1c1cc(NCc2ccc(Cl)s2)n(C(=O)C(C)(C)C)n1 (stereo not shown) [Entry 244, prop-2-en-1-yl 2-(5-[(5-chlorothiophen-2-yl)methyl]amino-1-(2,2-dimethylpropanoyl)-1H-pyrazol-3-yl)-4-(morpholine-4-carbonyl)piperazine-1-carboxylate] showed an IC50 of 1000 to 10000 nM. With O=C(c1ccoc1)n1nc(C2CCN(Cc3ccccc3)C2)cc1NCc1ccc(Cl)s1 (stereo not shown) [Entry 114, 3-(1-benzylpyrrolidin-3-yl)-N-[(5-chlorothiophen-2-yl)methyl]-1-(furan-3-carbonyl)-1H-pyrazol-5-amine] the IC50 was 1000 to 10000 nM.
